Where a SMILES comes first, the peptide text is derived from it.

This test relates to acetic acid ulcer. The experiment in a line: Healing accelerating action on acetic acid ulcer of rat. The format is in vivo, Sprague Dawle rats. Here is the method: 15 Sprague Dawle rats each having a weight of about 220 g were used, and a gastric ulcer was experimentally formed in each of the rats. A gastric ulcer was formed by exposing the gastric anterior wall of each of the rats by ventrotomy under etherization, and injecting 0.03 ml of 20% acetic acid into the submucous layer in the boundary between the fundus glands and the pyloric glands of the gastric anterior wall by a Hamilton microsyringe in accordance with the method of Okabe et al., closing the stomach, and then feeding for 7 days in a normal manner.
On the seventh day, five rats were sacrificially killed, and the stomachs were extracted therefrom. The residual 10 rats were divided into two groups consisting of 5 rats each and used as a control group administered with physiologic saline and an experimental group administered with PR-39.
The rats in the control group and the experimental group were intraperitoneally administered with 1 ml of physiologic saline and 0.8 mg/ml of PR-39, respectively, once a day. After administration of physiologic saline or PR-39 for 7 days, the stomach was extracted from each of the rats on the day after final administration (14 days after acetic acid administration).
In each of the extracted stomachs, the pyloric ring and the esophagogastric junction were clamped, and 10 ml of 70% alcohol was injected into the stomach, followed by fixing. The stomach was cut along the curvatura ventriculi major to expose the gastric mucosal surface, and the gastric ulcer formed was visually observed to measure the surface area thereof.
Successively, a central portion of the gastric ulcer was cut out in parallel to the curvatura ventriculi minor, embedded in paraffin, and then stained with HE to histologically examine the formed gastric ulcer.
The examination terms included the length of each of the gastric ulcer, and the thickness of the granulation of the ulcer bottom thereof.

Setting [1] is: 14 days after acetic acid, histological observation, PR-39 0.8 mg/ml intraperitoneally once a day for 7 days.

With `CC[C@H](C)[C@H](NC(=O)[C@H](CCCNC(=N)N)NC(=O)[C@@H]1CCCN1C(=O)[C@@H]1CCCN1C(=O)[C@H](CC(C)C)NC(=O)[C@H](CCCNC(=N)N)NC(=O)[C@@H]1CCCN1C(=O)[C@@H]1CCCN1C(=O)[C@H](Cc1ccccc1)NC(=O)[C@H](Cc1ccccc1)NC(=O)[C@@H]1CCCN1C(=O)[C@@H]1CCCN1C(=O)[C@@H]1CCCN1C(=O)[C@H](CCCNC(=N)N)NC(=O)[C@@H]1CCCN1C(=O)[C@H](CCCNC(=N)N)NC(=O)[C@@H]1CCCN1C(=O)[C@H](CC(C)C)NC(=O)[C@H](Cc1ccc(O)cc1)NC(=O)[C@@H]1CCCN1C(=O)[C@@H]1CCCN1C(=O)[C@H](CCCNC(=N)N)NC(=O)[C@@H]1CCCN1C(=O)[C@H](CCCNC(=N)N)NC(=O)[C@H](CCCNC(=N)N)NC(=O)[C@@H](N)CCCNC(=N)N)C(=O)N1CCC[C@H]1C(=O)N1CCC[C@H]1C(=O)NCC(=O)N[C@@H](Cc1ccccc1)C(=O)N1CCC[C@H]1C(=O)N1CCC[C@H]1C(=O)N[C@@H](CCCNC(=N)N)C(=O)N[C@@H](Cc1ccccc1)C(=O)N1CCC[C@H]1C(=O)N1CCC[C@H]1C(=O)N[C@@H](CCCNC(=N)N)C(=O)N[C@@H](Cc1ccccc1)C(=O)N1CCC[C@H]1C(N)=O` [PR-39, proline arginine rich peptide-39] (H-RRRPRPPYLPRPRPPPFFPPRLPPRIPPGFPPRFPPRFP-NH2; N-terminus and C-terminus assumed), the Ulcer surface area (14 days after acetic acid, PR-39 0.8 mg/ml intraperitoneally once a day for 7 days) is 2.82 ± 1.96 mm2; average±SEM. In addition, the “visual observation of gastric mucosa” value (14 days after acetic acid, compared with the control group (physiologic saline)) is on record as “ulcer scar accompanied with concentration of the mucosal folds of gallbladder was observed”. Also, under setting [1], the Diameter of ulcer is 1.58 ± 0.49 mm and the “Thickness of granulation tissue” value is listed as 1.39 ± 0.59 mm. Also, under “PR-39 administered every day in the healing stage (7th to 14th day)”, the “ulcer area as compared with the control group” value is reported as “significantly decreased”. Besides, the “thickness of granulation at the ulcer bottom” value (PR-39 administration) is listed as “significantly decreased”. In addition, the “length of an ulcer (histological observation)” value (PR-39 administration group) is on record as “significantly decreased”.

Source of the values: patent EP0935965A1, “ANTIPYLORI AGENT” (TORAY INDUSTRIES, INC., priority 1996, dated 1997).
